Assay results published in patent US20100273732A1, “COMBINATION METHODS OF TREATING CANCER” (priority 2003, published 2010).
Like-named read-outs stand apart in the source and are kept apart here.

Assays:
[1] = tested on: LnCap (prostate) cells; assay: alamarBlue proliferation inhibition, drug combination experiments, LnCap; type: cell-based; settings: Homo sapiens, 96 h
Procedure: (§1) Drug combination experiments were performed on five human cancer cell lines: T24 (bladder carcinoma), LnCap (prostate), MCF7 (breast), DLCL (non-Hodgkin's lymphoma) and LCC18 (colon carcinoid). Each cell line was cultured and incubated at 37° C. in its required medium: MEM a (10% FCS), RPMI 1640 (10% FCS), DME HG (10% FCS), enhanced RPMI (10% FCS), and Hites medium (5% FCS), respectively.
(§2) DLCL, a suspension cell line, was plated on 96 well plates on the same day of the experiment. For T24, LnCap, DLCL and LCC18, 200 μL containing 2000 cells were plated into each well. For MCF7, 4000 cells/well were plated to account for the line's slower cell cycle.
(§3) Cells that received no treatment served as a control group.
(§4) To administer treatment to adherent cell lines (T24, LnCap, MCF7), media in each well was aspirated and replaced with 200 μL of media containing desired concentration of drug or drugs. For all other cell lines ([…] and DLCL), 22 μL of media containing 10 times the desired concentration of drug or drugs was added to 200 μL of media in each well.
(§5) After treatment, cells were incubated at 37° C. for 4 days. On the fourth day, each well was treated with 20 μL of alamarBlur™, an aqueous dye, and incubated for 4 hours at 37° C. The reduction of this dye, when absorbed by cells, is greater in proliferating cells than in non-proliferating cells because of an increased concentration of NADPH, FADH, FMNH and NADH. The reduction was measured by fluorescence using a SpectaMax GeminiXS® spectrofluorometric microtiter well plate reader (Molecular Devices Corporation, Sunnyvale, Calif.). Data was expressed as fluorescence emission intensity units as a function of time of incubation and analyzed using SOFTmax PRO® v. 4.0 software (Molecular Devices Corp. Sunnyvale, Calif.). In order to assess the percent inhibition of cell growth four days after drug treatment, the following formula was used:
(§6) 100−(Mean Intensity Units/Well with Identical Treatment)*100(Mean Intensity Units/Well in Control Group)
(§7) The concentrations used for treatment with each drug are based on the dose that inhibits 50% of proliferation for each drug. The following concentrations were tested:
(§8) a) 50% effective dose/4; b) 50% effective dose/2; c) 50% effective dose; d) 50% effective dose*2; and e) 50% effective dose*4. […] A polynomial relationship was defined between drug concentration and percent inhibition using various concentrations, and this function was used to predict the concentration of each drug required to inhibit proliferation of 50% of the cells.
(§9) The following criteria were established for assessing additive, synergistic and antagonistic interactions: […]

[2] = tested on: T24 (bladder carcinoma) cells; assay: alamarBlue proliferation inhibition, drug combination experiments, T24; type: cell-based; settings: Homo sapiens, 96 h, read-out: 50% inhibition Effective Dose, T24, 4 days
Procedure: as §1, §2, §3, §4, §5, §6, §7, §8, §9

[3] = tested on: LnCap cell line; assay: Cell proliferation and viability count, SAHA and gemcitabine, LnCap; type: cell-based, human; settings: 2 nM gemcitabine, 5 μM SAHA or both, 72 hours
Procedure: Cells were plated at a density of 2.5×10^4 cells/ml in RMPI medium with 10% FCS, and were allowed to adhere to wells.
Gemcitabine was reconstituted in medium and the pH was adjusted to 7 using 1N NaOH. Concentrations of gemcitabine were prepared by serial dilution of gemcitabine in complete medium.
The cells were then cultured with medium containing the compound or combination of compounds.
(§10) To assay for proliferation and viability, triplicate samples of cells were harvested and counted for proliferation and viability at the indicated time points as described above in Example 2.

[4] = tested on: carcinogen-induced (N-methylnitrosourea) mammary tumors; settings: rats; SAHA in diet over 130 days; cited from earlier work
[5] = tested on: T24 cell line; assay: Cell proliferation and viability count, SAHA and 5-azacytidine, T24; type: cell-based, human; settings: 200 nM 5-azacytidine (27.5 h pre-incubation), 5 μM SAHA or both
Procedure: Cells were cultured in T-150 flasks at 37° C. in RPMI with 10% FCS. Cells were diluted in a complete medium to a density of 5.0×10^4 cells/ml. The cells were incubated at 37° C. for 14 hours before treatment with 5-azacytidine to allow cells to adhere to the wells.
Concentrations of 5-azacytidine were prepared by serial dilution of from a 1 mM stock. After 14-hour incubation in complete medium, wells were aspirated and the medium was replaced to 1 ml of 5-azacytidine at the indicated concentration.
as §10

[6] = read-out: 50% inhibition Effective Dose, LnCap, agent alone, 4 days
[7] = read-out: 50% inhibition Effective Dose, LnCap, in combination with SAHA 0.125 μM, 4 days
[8] = read-out: 50% inhibition Effective Dose, LnCap, in combination with SAHA 0.25 μM, 4 days
[9] = read-out: 50% inhibition Effective Dose, LnCap, in combination with SAHA 0.5 μM, 4 days
[10] = read-out: 50% inhibition Effective Dose, LnCap, in combination with SAHA 1.0 μM, 4 days
[11] = read-out: 50% inhibition Effective Dose, LnCap, in combination with SAHA 2.0 μM, 4 days
[12] = in combination with SAHA 0.625 μM
[13] = in combination with SAHA 1.25 μM
[14] = in combination with SAHA 2.5 μM
[15] = in combination with SAHA 5.0 μM
[16] = in combination with SAHA 10.0 μM

`CC(=O)O[C@@]12CO[C@@H]1C[C@H](O)[C@@]1(C)C(=O)[C@H](O)C3=C(C)[C@@H](OC(=O)[C@H](O)[C@@H](NC(=O)OC(C)(C)C)c4ccccc4)C[C@@](O)([C@@H](OC(=O)c4ccccc4)[C@H]21)C3(C)C` [Docetaxel] gave an IC50 [1, 6] of 2.1 nM, an IC50 [1, 7] of 1.2 nM and an IC50 [1, 8] of 1.2 nM. For the same molecule, the IC50 [1, 9] was 0.6 nM, the IC50 [1, 10] was 0.34 nM and the IC50 [1, 11] was 0.12 nM. The IC50 ([2]; agent alone) was 2.1 nM, the IC50 [2, 12] was 0.51 nM and the IC50 [2, 13] was 0.72 nM. It also gave an IC50 [2, 14] of 0.59 nM, an IC50 [2, 15] of 0.29 nM and an IC50 [2, 16] of 0.05 nM.

In the case of `O=c1[nH]cc(F)c(=O)[nH]1` [5-FU, 5-Fluorouracil], the IC50 [1, 6] is reported as 3000 nM, the IC50 [1, 7] is reported as 5200 nM and the IC50 [1, 9] is reported as 1600 nM. It also gave an IC50 [1, 10] of 1900 nM, an IC50 [1, 11] of 990 nM and an IC50 ([2]; agent alone) of 14000 nM. The IC50 [2, 12] was 13100 nM, the IC50 [2, 13] was 11500 nM and the IC50 [2, 15] was 2700 nM. It also gave an IC50 [2, 16] of 1500 nM.

For `Nc1ccn([C@@H]2O[C@H](CO)[C@@H](O)C2(F)F)c(=O)n1` [gemcitabine], the “Effect on cell proliferation (FIG. 2)” value [3] was “small effect”.

In the case of `O=C(CCCCCCC(=O)Nc1ccccc1)NO` [SAHA, suberoylanilide hydroxamic acid], the “Effect on cell proliferation (FIG. 2)” value [3] is given as “significantly inhibited proliferation”, the “Development and continued growth of mammary tumors” value [4] is given as “effective at inhibiting the development and continued growth” and the “Effect on cell proliferation (FIG. 3)” value [5] is given as “significantly inhibited proliferation”.

With `CCc1c2c(nc3ccc(OC(=O)N4CCC(N5CCCCC5)CC4)cc13)-c1cc3c(c(=O)n1C2)COC(=O)[C@]3(O)CC` [Irinotecan] the IC50 [1, 6] was 5.1 nM, the IC50 [1, 7] was 5.1 nM and the IC50 [1, 8] was 4.1 nM. It also gave an IC50 [1, 9] of 3.8 nM, an IC50 [1, 10] of 1.9 nM and an IC50 [1, 11] of 1.9 nM. The IC50 ([2]; agent alone) was 5.1 nM, the IC50 [2, 12] was 4.1 nM and the IC50 [2, 13] was 2.8 nM. For the same molecule, the IC50 [2, 14] was 1.9 nM, the IC50 [2, 15] was 1.4 nM and the IC50 [2, 16] was 0.28 nM.

With `Nc1ncn([C@@H]2O[C@H](CO)[C@@H](O)[C@H]2O)c(=O)n1` [5-azacytidine] the “Effect on cell proliferation (FIG. 3)” value [5] was “significantly inhibited proliferation”.
